Laboratory results: article PMC9391200, “Charge-based interactions through peptide position 4 drive diversity of antigen presentation by human leukocyte antigen class I molecules” (PNAS Nexus, 2022)

Columns and labels:
HLA-A*24:02 [1] = biological target: T1, HLA-A*24:02 (Homo sapiens, UniProt P04439, D101N/D140Y/D185E/E176V/E190D/F33S/G103R/G107R/I119L/I121M/I306V/K335N/L105A/L180Q/L300P/N151K/N90K/Q86E/Q94H/R106L/R138H/R89G/T104I/T345S/V100E/W191G/Y123F); test: Peptide binding assay on WT HLA-A*24:02 (W6/32 donor/acceptor bead assay); settings: recombinant HLA-A*24:02 preincubated with varying peptide concentrations; streptavidin donor beads and W6/32-conjugated acceptor beads; EnVision read-out; reference peptide TYTQDFNKF; result in words
Excerpt: (§1) All HLA-A*02:01- and A*24:02-restricted peptides used in the study were purchased from Genscript at purity of > 80% with quality control by reverse-phase HPLC and mass spectrometry (SC1208). Recombinant HLA-A*02:01 and HLA-A*24:02 molecules were made and re-folded as described elsewhere ([83]). Conformation-dependent W6/32 antibodies used in these assays were produced in vitro from hybridoma cell lines (Integra, Chur, Switzerland). All A*02:01 and A*24:02 binding assays were done as described previously ([83]). In brief, streptavidin donor beads (PerkinElmer, 6760002) and acceptor beads (PerkinElmer, 6762001) conjugated to W6/32 were incubated with A*02:01 or A*24:02 that had been preincubated with varying peptide concentrations. Plates were read by PerkinElmer EnVision and data was analyzed using GraphPad Prism. Peptide stability assays were performed as described previously ([84]). In brief, biotinylated A*02:01 and A*24:02 molecules were refolded with excess peptide then incubated with 0, 2, 4, or 6 M urea. Nondenatured peptides were detected by W6/32 staining using ELISA as described previously ([85]). Stability was calculated as a percentage relative to a reference known binder peptide with an assigned stability index of 100%. […] was used as the reference peptide for A*02:01 and TYTQDFNKF was used as the reference peptide for A*24:02 in both the binding and stability assays.

HLA-A*24:02 [2] = biological target: T1, HLA-A*24:02; test: Peptide stability assay on WT HLA-A*24:02 (urea denaturation, W6/32 ELISA); type: binding; settings: biotinylated A*24:02 refolded with excess peptide, incubated with 0, 2, 4 or 6 M urea, relative to reference peptide TYTQDFNKF (stability index 100%), result in words
Excerpt: as §1

Sequence	peptide binding to WT A*24:02 (HLA-A*24:02 [1])	HLA-A*24:02/peptide complex stability (HLA-A*24:02 [2])
VYGFVRACL	strong-binding	
KFKDNVILL [p1 lysine-substituted …]		increased
QFKDNVILL [native A*24:02-restricted peptide with subdominant anchors F2 and LΩ]	relatively poor binding	
TFSDEAVHF	weak-binding	
